Values after ≈ are worked out from the molar mass of the structure shown. Active and inactive are the calls of the source. The rule behind the calls is not given here.
Assays:
Assay type in all cases: functional
Aspergillus niger [1] = assay: Antifungal activity against Aspergillus niger F-1119 at 0.1% after 48 to 72 hrs by agar disk diffusion technique
Yamadazyma tenuis [2] = assay: Antifungal activity against Candida tenuis VKM Y-70 at 0.1% after 48 to 72 hrs by agar disk diffusion technique
Mycobacterium [3] = assay: Antibacterial activity against Mycobacterium luteum B-917 at 0.1% after 24 hrs by agar disk diffusion technique
Staphylococcus aureus [4] = assay: Antibacterial activity against Staphylococcus aureus 209-P at 0.1% after 24 hrs by agar disk diffusion technique
Escherichia coli [5] = assay: Antibacterial activity against Escherichia coli B-906 at 0.1% after 24 hrs by agar disk diffusion technique
Aspergillus niger [6] = assay: Antifungal activity against Aspergillus niger F-1119 after 24 to 72 hrs by serial dilution technique
Yamadazyma tenuis [7] = assay: Antifungal activity against Candida tenuis VKM Y-70 after 24 to 72 hrs by serial dilution technique
Mycobacterium [8] = assay: Antibacterial activity against Mycobacterium luteum B-917 after 24 to 72 hrs by serial dilution technique
Staphylococcus aureus [9] = assay: Antibacterial activity against Staphylococcus aureus 209-P after 24 to 72 hrs by serial dilution technique
Escherichia coli [10] = assay: Antibacterial activity against Escherichia coli B-906 after 24 to 72 hrs by serial dilution technique
Aspergillus niger [11] = assay: Antifungal activity against Aspergillus niger F-1119 at 0.5% after 48 to 72 hrs by agar disk diffusion technique
Yamadazyma tenuis [12] = assay: Antifungal activity against Candida tenuis VKM Y-70 at 0.5% after 48 to 72 hrs by agar disk diffusion technique
Mycobacterium [13] = assay: Antibacterial activity against Mycobacterium luteum B-917 at 0.5% after 24 hrs by agar disk diffusion technique
Staphylococcus aureus [14] = assay: Antibacterial activity against Staphylococcus aureus 209-P at 0.5% after 24 hrs by agar disk diffusion technique
Escherichia coli [15] = assay: Antibacterial activity against Escherichia coli B-906 at 0.5% after 24 hrs by agar disk diffusion technique

Row | Structure (SMILES) | MIC (Aspergillus niger [6]) | MIC (Yamadazyma tenuis [7]) | MIC (Mycobacterium [8]) | MIC (Staphylococcus aureus [9]) | MIC (Escherichia coli [10]) | diameter of the inhibition zone (DIZ) (Aspergillus niger [1]) [mm] | diameter of the inhibition zone (DIZ) (Yamadazyma tenuis [2]) [mm] | diameter of the inhibition zone (DIZ) (Mycobacterium [3]) [mm] | diameter of the inhibition zone (DIZ) (Staphylococcus aureus [4]) [mm] | diameter of the inhibition zone (DIZ) (Escherichia coli [5]) [mm] | diameter of the inhibition zone (DIZ) (Aspergillus niger [11]) [mm] | diameter of the inhibition zone (DIZ) (Yamadazyma tenuis [12]) [mm] | diameter of the inhibition zone (DIZ) (Mycobacterium [13]) [mm] | diameter of the inhibition zone (DIZ) (Staphylococcus aureus [14]) [mm] | diameter of the inhibition zone (DIZ) (Escherichia coli [15]) [mm]
1 | CSc1ccc(SC2=C(Sc3ccc(SC)cc3)C(=O)c3ccccc3C2=O)cc1 | 500 µg/mL (≈ 1070 µM) | inactive | 125 µg/mL (≈ 268 µM) | 250 µg/mL (≈ 536 µM) | inactive | 0 | 0 | 8.7 | 0 | 0 | 6 | 0 | 11 | 8.7 | 0
2 | CC1CCC(C(C)(C)SC2=C(SC(C)(C)C3CCC(C)CC3=O)C(=O)c3ccccc3C2=O)C(=O)C1 (stereo not given) | 500 µg/mL (≈ 949 µM) | inactive | 500 µg/mL (≈ 949 µM) | inactive | inactive | 0 | 0 | 0 | 0 | 0 | 6 | 7.4 | 0 | 0 | 0
3 | O=C1C(Sc2c(Cl)c(Cl)c(Cl)c(Cl)c2Cl)=C(N2CCN(c3ccc(F)cc3)CC2)C(=O)c2ccccc21 | inactive | inactive | 125 µg/mL (≈ 203 µM) | inactive | inactive | 0 | 0 | 0 | 0 | 0 | 0 | 0 | 0 | 0 | 0

Continued, in another order:

Row | MIC (Aspergillus niger [6]) | MIC (Yamadazyma tenuis [7]) | MIC (Mycobacterium [8]) | MIC (Staphylococcus aureus [9]) | MIC (Escherichia coli [10]) | Structure (SMILES) | diameter of the inhibition zone (DIZ) (Aspergillus niger [1]) [mm] | diameter of the inhibition zone (DIZ) (Yamadazyma tenuis [2]) [mm] | diameter of the inhibition zone (DIZ) (Mycobacterium [3]) [mm] | diameter of the inhibition zone (DIZ) (Staphylococcus aureus [4]) [mm] | diameter of the inhibition zone (DIZ) (Escherichia coli [5]) [mm] | diameter of the inhibition zone (DIZ) (Aspergillus niger [11]) [mm] | diameter of the inhibition zone (DIZ) (Yamadazyma tenuis [12]) [mm] | diameter of the inhibition zone (DIZ) (Mycobacterium [13]) [mm] | diameter of the inhibition zone (DIZ) (Staphylococcus aureus [14]) [mm] | diameter of the inhibition zone (DIZ) (Escherichia coli [15]) [mm]
4 | inactive | inactive | inactive | inactive | inactive | O=C1C(Sc2c(Cl)c(Cl)c(Cl)c(Cl)c2Cl)=C(N2CCCC2)C(=O)c2ccccc21 | 0 | 0 | 0 | 0 | 0 | 0 | 0 | 0 | 0 | 0
5 | inactive | inactive | inactive | inactive | inactive | O=C1C(Sc2c(Cl)c(Cl)c(Cl)c(Cl)c2Cl)=C(N2CCCCC2)C(=O)c2ccccc21 | 0 | 0 | 0 | 0 | 0 | 0 | 0 | 0 | 0 | 0

— ChEMBL document CHEMBL2424637, “Nucleophilic substitution reactions of 1,4-naphthoquinone and biologic properties of novel S-, S,S-, N-, and N,S-substituted 1,4-naphthoquinone derivatives” (2013)
